Test results: patent US10894807B2 (Siemens Medical Solutions USA, Inc., priority 2011, dated 2021)

Target: human PSMA (Homo sapiens (Human), UniProt Q04609)
Experiment: Enzymatic assay for in vitro evaluation of PSMA inhibitors (fluorescent assay of PSMA activity, NAAG substrate, OPA detection of glutamate)
Assay type: biochemical
Settings: for PSMA Blkg % (10 μM): compound at 10 μM
Protocol: Enzymatic Assay for In Vitro Evaluation of PSMA Inhibitors
The inhibitory activity of all compounds was determined using a fluorescent assay of human PSMA activity. The enzyme used in the assay was purchased from R&D Systems and stored at −80° C. The PSMA activity was assayed in a two-step process. In the first step, aliquots of enzyme (0.2 μg/mL) were incubated for 1 h at 37° C. in 50 mM HEPES, 0.1 M NaCl, pH 7.5, in the presence of 20 μM NAAG and the given inhibitor, in a volume of 250 μL, to allow for the accumulation of glutamate produced in the PSMA reaction. In the second step, the amount of accumulated glutamate was measured using the OPA reaction, and the fluorescence was read with a SpectraMax fluorescent plate reader using excitation at 330 nm and emission at 450 nm. The final Ki values for each inhibitor were calculated from the respective IC50 values using the Cheng and Prusoff equation.

Sequence of human PSMA (Q04609 whole entry): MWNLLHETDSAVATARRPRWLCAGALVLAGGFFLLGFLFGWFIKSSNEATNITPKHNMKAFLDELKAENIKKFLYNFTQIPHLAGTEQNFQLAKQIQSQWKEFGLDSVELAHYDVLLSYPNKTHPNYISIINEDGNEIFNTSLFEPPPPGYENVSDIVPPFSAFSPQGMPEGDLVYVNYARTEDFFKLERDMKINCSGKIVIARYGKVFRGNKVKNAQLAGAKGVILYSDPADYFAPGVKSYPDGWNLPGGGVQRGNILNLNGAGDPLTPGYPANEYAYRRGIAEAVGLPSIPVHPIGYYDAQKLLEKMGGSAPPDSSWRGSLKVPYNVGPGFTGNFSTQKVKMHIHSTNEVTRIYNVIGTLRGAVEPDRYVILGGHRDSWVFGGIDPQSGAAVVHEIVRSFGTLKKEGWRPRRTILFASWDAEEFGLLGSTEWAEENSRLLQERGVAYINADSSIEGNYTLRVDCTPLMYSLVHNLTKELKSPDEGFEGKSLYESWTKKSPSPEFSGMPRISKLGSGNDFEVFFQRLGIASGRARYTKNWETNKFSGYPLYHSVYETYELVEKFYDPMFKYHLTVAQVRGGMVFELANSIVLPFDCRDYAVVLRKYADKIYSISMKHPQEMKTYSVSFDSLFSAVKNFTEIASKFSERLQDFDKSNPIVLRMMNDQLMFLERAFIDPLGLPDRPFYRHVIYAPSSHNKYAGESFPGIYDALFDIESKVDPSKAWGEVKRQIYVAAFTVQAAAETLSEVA

| Ki | PSMA Blkg % (1.0 μM) | PSMA Blkg % (10 μM) | Compound |
| --- | --- | --- | --- |
| 50 nM | – | 97% | O=C(O)CC[C@H](NC(=O)N[C@@H](CSCc1ccc(F)cc1)C(=O)O)C(=O)O [P001] |
| – | – | 92% | O=C(O)CC[C@H](NC(=O)N[C@@H](CCCCNC(=O)c1ccc(F)nc1)C(=O)O)C(=O)O [P002, (S)-2-(3-((S)-1-Carboxy-5-(6-fluoronicotinamido)pentyl)ureido)pentanedioic Acid] |
| – | – | 99% | O=C(O)CC[C@H](NC(=O)N[C@@H](CCCCNC(=O)c1ccc(Cl)nc1)C(=O)O)C(=O)O [P003, (S)-2-(3-((S)-1-Carboxy-5-(6-chloronicotinamido)pentyl)ureido)pentanedioic Acid] |
| 15.6 nM | – | 90% | O=C(O)CC[C@H](NC(=O)N[C@@H](CCCCNC(=O)c1ccnc(F)c1)C(=O)O)C(=O)O [P004, (S)-2-(3-((S)-1-Carboxy-5-(2-fluoroisonicotinamido)pentyl)ureido)pentanedioic Acid] |
| 40.7 nM | – | 89% | O=C(O)CC[C@H](NC(=O)N[C@@H](CCCCNC(=O)Cn1cc(CCCF)nn1)C(=O)O)C(=O)O [P005, (S)-2-(3-((S)-1-Carboxy-5-(2-(4-(3-fluoropropyl)-1H-1,2,3-triazol-1-yl)acetamido)pentyl)ureido)pentanedioic Acid] |
| – | – | 21% | O=C(O)CC[C@H](NC(=O)N(CC(=O)O)[C@@H](CCCCNC(=O)OCc1ccccc1)C(=O)O)C(=O)O [P008, (9S,13S)-10-(Carboxymethyl)-3,1-dioxo-1-phenyl-2-oxa-4,10,12-triazapentadecane-9,13,15-tricarboxylic Acid] |
| – | – | 0% | O=C(O)CC[C@H](NC(=O)N(CC(=O)O)[C@@H](CCCCNC(=O)OCc1ccccc1)C(=O)NO)C(=O)O [P012, (S)-2-(3-((S)-6-(((Benzyloxy)carbonyl)amino)-1-(hydroxyamino)-1-oxohexan-2-yl)-3-(carboxymethyl)ureido)pentanedioic Acid] |
| – | – | 0% | O=C(O)CC[C@H](NC(=O)C[C@H](NC(=O)OCc1ccccc1)C(=O)O)C(=O)O [P015, (S)-2-((S)-3-(((Benzyloxy)carbonyl)amino)-3-carboxypropanamido)pentanedioic Acid] |
| 15.6 nM | – | 99% | CN(C(=O)N[C@@H](CCC(=O)O)C(=O)O)[C@@H](CCCCNC(=O)OCc1ccccc1)C(=O)O [P018, (9S,13S)-10-Methyl-3,11-dioxo-1-phenyl-2-oxa-4,10,12-triazapentadecane-9,13,15-tricarboxylic Acid] |
| 37.5 nM | – | 97% | CN(C(=O)N[C@@H](CCCCNC(=O)OCc1ccccc1)C(=O)O)[C@@H](CCC(=O)O)C(=O)O [P019, (9S,13S)-12-Methyl-3,11-dioxo-1-phenyl-2-oxa-4,10,12-triazapentadecane-9,13,15-tricarboxylic Acid] |
| – | – | 0% | O=C(O)CC[C@H](NC(=O)C[C@H](NC(=O)Cn1cc(CCCF)nn1)C(=O)O)C(=O)O [P020, (S)-2-((S)-3-Carboxy-3-(2-(4-(3-fluoropropyl)-1H-1,2,3-triazol-1-yl)acetamido)-propanamido)pentanedioic Acid] |
| – | – | 24% | [N-]=[N+]=NCCCC(=O)N[C@@H](CC(=O)N[C@@H](CCC(=O)O)C(=O)O)C(=O)O [P023, (S)-2-((S)-3-(4-Azidobutanamido)-3-carboxypropanamido)pentanedioic Acid] |

The next lines start with the compound.

| Compound | Ki | PSMA Blkg % (1.0 μM) | PSMA Blkg % (10 μM) |
| --- | --- | --- | --- |
| O=C(O)CCC(NC(=O)NC(CCCCNC(=O)CC(CC(=O)NCCCCC(NC(=O)N[C@@H](CCC(=O)O)C(=O)O)C(=O)O)NC(=O)c1ccc(-n2cc(CCCF)nn2)cc1)C(=O)O)C(=O)O (stereo in doubt) [P278, (3S,7S,23S,27S)-15-(4-(4-(3-Fluoropropyl)-1H-1,2,3-triazol-1-yl)benzamido)-5,13,17,25-tetraoxo-4,6,12,18,24,26-hexaazanonacosane-1,3,7,23,27,29-hexacarboxylic Acid] | 0.2 nM | – | – |
| O=C(O)CC[C@H](NC(=O)N[C@@H](CCCCNC(=O)N1CCN(C(=O)CCC(CCC(=O)N2CCN(C(=O)NCCCC[C@H](NC(=O)N[C@@H](CCC(=O)O)C(=O)O)C(=O)O)CC2)NC(=O)c2ccc(-n3cc(CCCF)nn3)cc2)CC1)C(=O)O)C(=O)O (stereo in doubt) [P281, (2S,2′S)-2,2′-(((((1S,1′S)-((4,4′-(4-(4-(4-(3-Fluoropropyl)-1H-1,2,3-triazol-1-yl)benzamido)heptanedioyl)bis(piperazine-1,1′-carbonyl))bis(azanediyl))bis(1-carboxypentane-5,1diyl))-bis(azanediyl))-bis(carbonyl))-bis(azanediyl))-dipentanedioic Acid] | 1.3 nM | – | – |
| O=C(O)CCC(NC(=O)NC(CC1CCN(C(=O)CCC(CCC(=O)N2CCC(C[C@H](NC(=O)NC(CCC(=O)O)C(=O)O)C(=O)O)CC2)NC(=O)c2ccc(-n3cc(CCCF)nn3)cc2)CC1)C(=O)O)C(=O)O (stereo in doubt) [P292, (2S)-2-(3-((1S)-1-Carboxy-2-(1-(7-(4-((S)-2-carboxy-2-(3-((S)-1,3-dicarboxypropyl)-ureido)-ethyl)-piperidin-1-yl)-4-(4-(4-(3-fluoropropyl)-1H-1,2,3-triazol-1-yl)-benzamido)7-oxoheptanoyl)-piperidin-4-yl)ethyl)ureido)pentanedioic Acid] | 0.7 nM | 96% | – |
| O=C(Nc1cc(C(=O)O)cc(C(=O)O)c1)N[C@@H](Cc1ccc(OCCF)cc1)C(=O)O [P006, (S)-5-(3-(1-Carboxy-2-(4-(2-fluoroethoxy)phenyl)ethyl)ureido)isophthalic Acid] | – | – | 0% |
| O=C(Cn1cc(CCCF)nn1)NCCCC[C@H](NC(=O)Nc1cc(C(=O)O)cc(C(=O)O)c1)C(=O)O [P007, (S)-5-(3-(1-Carboxy-5-(2-(4-(3-fluoropropyl)-1H-1,2,3-triazol-1-yl)acetamido)pentyl)-ureido)isophthalic Acid] | – | – | 0% |
| O=C(O)CCC(CP(=O)(O)O)C(=O)O (stereo not shown) [P009] | – | – | 100% |
| O=C(O)CC[C@H](NC(=O)N(CCc1ccccc1)CC(=O)O)C(=O)O [P010, (S)-2-(3-(Carboxymethyl)-3-phenethylureido)pentanedioic Acid] | – | – | 0% |
| O=C(O)CC[C@H](NC(=O)N(CC(=O)O)NC(=O)Cc1ccccc1)C(=O)O [P011, (S)-2-(1-(Carboxymethyl)-2-(2-phenylacetyl)hydrazinecarboxamido)pentanedioic Acid] | – | – | 0% |
| O=C(O)CN(CC(=O)O)NC(=O)NC(CSCc1ccccc1)C(=O)O (stereo not shown) [P013, 2,2′-(2-((2-(Benzylthio)-1-carboxyethyl)carbamoyl)hydrazine-1,1-diyl)diacetic Acid] | – | – | 16% |
| Cc1ccc(-c2cn(CC(=O)N[C@@H](CC(=O)N[C@@H](CCC(=O)O)C(=O)O)C(=O)O)nn2)cc1 [P016, (S)-2-((S)-3-Carboxy-3-(2-(4-(p-tolyl)-1H-1,2,3-triazol-1-yl)acetamido)-propanamido)pentanedioic Acid] | – | – | 12% |
| O=C(O)CCN(CC(=O)O)NC(=O)NC(CSCc1ccccc1)C(=O)O (stereo not shown) [P017, 3-(Benzylthio)-2-(2-(2-carboxyethyl)-2-(carboxymethyl)-hydrazinecarboxamido)propanoic Acid] | – | – | 0% |
| O=C(O)CC[C@H](NC(=O)N(CC(=O)O)NC(=O)OCc1ccccc1)C(=O)O [P021, (S)-2-(2-(Benzyloxycarbonyl)-1-(carboxymethyl)hydrazinecarboxamido) pentanedioic Acid] | – | – | 0% |
| O=C(O)CC[C@H](NC(=O)NCC(=O)O)C(=O)O [P022, (S)-2-(3-(Carboxymethyl)ureido)pentanedioic Acid] | – | – | 77% |
| C[C@@H](C(=O)O)N(C)C(=O)N[C@@H](CCC(=O)O)C(=O)O [P024, (S)-2-(3-((S)-1-carboxyethyl)-3-methylureido)pentanedioic Acid] | – | – | 6% |
| C[C@H](NC(=O)N[C@@H](CCC(=O)O)C(=O)O)C(=O)O [P025, (S)-2-(3-((S)-1-Carboxyethyl)ureido)pentanedioic Acid] | – | – | 92% |
| O=C(O)CCNC(=O)N[C@@H](CCC(=O)O)C(=O)O [P026, (S)-2-(3-(2-Carboxyethyl)ureido)pentanedioic Acid] | – | – | 2% |
| O=C(O)CC[C@H](NC(=O)OCC(=O)O)C(=O)O [P027, (S)-2-(((Carboxymethoxy)carbonyl)amino)pentanedioic Acid] | – | – | 31% |
| O=C(O)CN(CC(=O)O)CC(=O)N[C@H](CSCc1ccccc1)C(=O)O [P028, (S)-2,2′-((2-((2-(Benzylthio)-1-carboxyethyl)amino)-2-oxoethyl)azanediyl)diacetic Acid] | – | – | 24% |
| CN(C(=O)CCCC(=O)O)[C@@H](CCC(=O)O)C(=O)O [P029, (S)-2-(4-Carboxy-N-methylbutanamido)pentanedioic Acid] | – | – | 12% |
| O=C(O)CCCC(=O)NC(CCC(=O)O)C(=O)O (stereo not shown) [P030, S)-2-(4-Carboxybutanamido)pentanedioic Acid] | – | – | 2% |
| C[C@H](NC(=O)CCCN=[N+]=[N-])C(=O)N[C@@H](CCC(=O)O)C(=O)O [P031, (S)-2-((S)-2-(4-Azidobutanamido)propanamido)pentanedioic Acid] | – | – | 19% |
| CN(C(=O)N[C@@H](CCC(=O)O)C(=O)O)[C@@H](CCCCNC(=O)Cn1cc(CCCF)nn1)C(=O)O [P032, (S)-2-(3-((S)-1-Carboxy-5-(2-(4-(3-fluoropropyl)-1H-1,2,3-triazol-1-yl)acetamido)pentyl)-3-methylureido)pentanedioic Acid] | – | – | 50% |
